Common to all, as to assay: NCI 60 cell one-dose screening (SRB)
Type in all cases: cell-based

The test system of one experiment is MOLT-4. As to conditions: Homo sapiens; MOLT-4, Leukemia; single dose 10 µM, 48 h; read-out: Percentage of cellular growth inhibition. The gist of the method: (§1)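 Absorbance of bound sulphorhodamine B at 515 nm served as the read-out after 48 h of treatment with 10 µM compound. Growth % used a time-zero plate (Tz) fixed at drug addition and the untreated control; inhibition % equals 100 minus that growth.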

The next experiment has as its system HOP-92. To be noted: Homo sapiens, HOP-92, 48 h, HOP-92, Non-Small Cell Lung Cancer, single dose 10 µM, read-out: Percentage of cellular growth inhibition. A digest of the protocol:
as §1

The next experiment deals with HS 578T. To be noted: Homo sapiens, Breast Cancer, single dose 10 µM, 48 h, read-out: Percentage of cellular growth inhibition. The gist of the method: as §1
The test system of another experiment is K-562. As to conditions: Homo sapiens, K562; K-562, Leukemia; single dose 10 µM, 48 h; read-out: Percentage of cellular growth inhibition. The gist of the method: as §1
In another experiment the test system is HCT-15. As to conditions: Homo sapiens; HCT-15, Colon Cancer; single dose 10 µM, 48 h; read-out: Percentage of cellular growth inhibition. A digest of the protocol:
as §1

Another experiment has as its system SF-295. As to conditions: Homo sapiens; SF-295, CNS Cancer; single dose 10 µM, 48 h; read-out: Percentage of cellular growth inhibition. A digest of the protocol: as §1
Another experiment concerns SF-539. To be noted: Homo sapiens; SF-539, CNS Cancer; single dose 10 µM, 48 h; read-out: Percentage of cellular growth inhibition. A digest of the protocol: as §1
A further experiment has as its system COLO 205. To be noted: Homo sapiens; COLO 205, Colon Cancer; single dose 10 µM, 48 h; read-out: Percentage of cellular growth inhibition. The gist of the method:
as §1

A further experiment relates to ACHN. As to conditions: Homo sapiens, Renal Cancer, single dose 10 µM, 48 h, read-out: Percentage of cellular growth inhibition. A digest of the protocol:
as §1

In a further experiment the test system is RXF 393. To be noted: Homo sapiens; RXF 393, Renal Cancer; single dose 10 µM, 48 h; read-out: Percentage of cellular growth inhibition. The gist of the method:
as §1

The test system of another experiment is SK-MEL-5. As to conditions: Homo sapiens; SK-MEL-5, Melanoma; single dose 10 µM, 48 h; read-out: Percentage of cellular growth inhibition. A digest of the protocol: as §1
Another experiment deals with MDA-MB-468. As to conditions: Homo sapiens; MDA-MB-468, Breast Cancer; single dose 10 µM, 48 h; read-out: Percentage of cellular growth inhibition. A digest of the protocol:
as §1

A further experiment deals with SK-MEL-28. As to conditions: Homo sapiens; SK-MEL-28, Melanoma; single dose 10 µM, 48 h; read-out: Percentage of cellular growth inhibition. A digest of the protocol:
as §1

The next experiment concerns U251. As to conditions: Homo sapiens, U-251; U251, CNS Cancer; single dose 10 µM, 48 h; read-out: Percentage of cellular growth inhibition. The gist of the method:
as §1

For another experiment, the system named is SK-OV-3. As to conditions: Homo sapiens; SK-OV-3, Ovarian Cancer; single dose 10 µM, 48 h; read-out: Percentage of cellular growth inhibition. The gist of the method: as §1
A further experiment relates to SN12C. As to conditions: Homo sapiens, Renal Cancer, single dose 10 µM, 48 h, read-out: Percentage of cellular growth inhibition. A digest of the protocol: as §1
A further experiment deals with SNB-19. To be noted: Homo sapiens; SNB-19, CNS Cancer; single dose 10 µM, 48 h; read-out: Percentage of cellular growth inhibition. The gist of the method:
as §1

A further experiment has as its system NCI-H522. To be noted: Homo sapiens; NCI-H522, Non-Small Cell Lung Cancer; single dose 10 µM, 48 h; read-out: Percentage of cellular growth inhibition. The gist of the method: as §1
The subject of the next experiment is A549/ATCC. As to conditions: Homo sapiens, Non-Small Cell Lung Cancer, single dose 10 µM, 48 h, read-out: Percentage of cellular growth inhibition. A digest of the protocol:
as §1

In another experiment the test system is M14. To be noted: Homo sapiens; M14, Melanoma; single dose 10 µM, 48 h; read-out: Percentage of cellular growth inhibition. A digest of the protocol:
as §1

The test system of a further experiment is NCI/ADR-RES. To be noted: Homo sapiens, Ovarian Cancer, single dose 10 µM, 48 h, read-out: Percentage of cellular growth inhibition. A digest of the protocol:
as §1

As a reminder, the inhibition is the relative decrease from the control value, in per cent.

`CCOc1ccc(/N=N/c2sc(Nc3cccc(Nc4nc(C)c(/N=N/c5ccc(OCC)cc5)s4)c3)nc2C)cc1` [5b, N^1,N^3-bis(5-((4-ethoxyphenyl)diazinyl)-4-methylthiazol-2-yl)benzene-1,3-diamine]: the inhibition at 10 µM in the experiment on MOLT-4 is -2.2%; in the experiment with HOP-92, 25.1%; in the experiment with HS 578T it was 2.2%; in the experiment with K-562, -0.4%; with HCT-15, 8.4%; with SF-295, 4.4%. In addition, the inhibition at 10 µM is 0.1% with SF-539; -5.1% in the experiment with COLO 205; 1.1% in the experiment on ACHN; 1% in the experiment with RXF 393; 0.8% in the experiment on SK-MEL-5; 4.3% with MDA-MB-468. In addition, the inhibition at 10 µM was determined as 2.5% in the experiment on SK-MEL-28; 3.3% with U251; 1.1% with SK-OV-3; 4.7% with SN12C; 11.5% in the experiment on SNB-19; 12.9% in the experiment with NCI-H522. The inhibition at 10 µM in the experiment with A549/ATCC was 12.5%; with M14, -7%; in the experiment with NCI/ADR-RES it was 1.5%.

In the case of `Fc1ccc(-c2csc(Nc3cccc(Nc4nc(-c5ccc(F)cc5)cs4)c3)n2)cc1` [6b, N^1,N^3-bis(4–(4-fluorophenyl)thiazol-2-yl)benzene-1,3-diamine], the inhibition at 10 µM in the experiment with MOLT-4 amounted to 53.6%; with HOP-92, 60.8%; in the experiment on HS 578T, 30.7%; in the experiment on K-562 it was 64%; in the experiment on HCT-15, 47.5%; with SF-295 it was 9.6%. Further, the inhibition at 10 µM in the experiment with SF-539 was determined as 29.1%; in the experiment on COLO 205 it was 24.3%; in the experiment on ACHN, 48.2%; in the experiment on RXF 393, 24.5%; in the experiment on SK-MEL-5 it was 38.8%; with MDA-MB-468, 61.4%. Besides, the inhibition at 10 µM in the experiment on SK-MEL-28 was found to be 23.6%; with U251, 37.3%; in the experiment with SK-OV-3, 13.2%; with SN12C it was 52.8%; with SNB-19, 29.8%; in the experiment on NCI-H522 it was 93.8%. Further, the inhibition at 10 µM in the experiment on A549/ATCC amounted to 37.2%; in the experiment on M14 it was 33.2%; in the experiment on NCI/ADR-RES, 36.3%.

Turning to `Clc1ccc(-c2cs/c(=N\c3ccccc3)n2-c2cccc(-n3c(-c4ccc(Cl)cc4)cs/c3=N\c3ccccc3)c2)cc1` [8c, N,N’-(3,3’-(1,3-phenylene)bis(4–(4-chlorophenyl)thiazole-3(3H)-yl-2(3H)-ylidene))dianiline], the inhibition at 10 µM in the experiment with MOLT-4 is 12.3%; in the experiment with HOP-92 it was 2.4%; in the experiment on HS 578T, 10.4%; in the experiment with K-562, 11.7%; in the experiment with HCT-15 it was -1.3%; in the experiment with SF-295, -17.9%. The inhibition at 10 µM with SF-539 was -3%; in the experiment with COLO 205 it was 17.2%; with ACHN it was -1.5%; with RXF 393, 8.4%; with SK-MEL-5, 3.1%; in the experiment with MDA-MB-468, 35.4%. The inhibition at 10 µM in the experiment with SK-MEL-28 was -1%; in the experiment on U251 it was 11.1%; with SK-OV-3, -29.4%; with SN12C, 2.3%; with SNB-19 it was 3.8%; with NCI-H522 it was 42.2%. The inhibition at 10 µM is 27.7% in the experiment with A549/ATCC, -10.7% with M14 and 0.5% with NCI/ADR-RES.

On to `Cc1nc(Nc2cccc(Nc3nc(C)c(N=Nc4ccccc4)s3)c2)sc1N=Nc1ccccc1` [5a, N^1,N^3-bis(4-methyl-5-(phenyldiazenyl)thiazol-2-yl)benzene-1,3-diamine], for which the inhibition at 10 µM with MOLT-4 is 32.6%; in the experiment with HOP-92 it was -4%; with HS 578T it was 19.8%; with K-562, 32.9%; with HCT-15 it was 21%; with SF-295, 13.6%. Moreover, the inhibition at 10 µM in the experiment with SF-539 was 15.4%; in the experiment with COLO 205, -4.9%; in the experiment on ACHN it was 38.3%; in the experiment with RXF 393, -4.4%; in the experiment on SK-MEL-5, 8.5%; in the experiment on MDA-MB-468 it was 29.4%. Besides, the inhibition at 10 µM with SK-MEL-28 was 2.5%; in the experiment with U251, 30.1%; in the experiment on SK-OV-3, -6.6%; in the experiment on SN12C, 53.9%; in the experiment with SNB-19, 42.6%; in the experiment with NCI-H522 it was 30.7%. Moreover, the inhibition at 10 µM in the experiment on A549/ATCC was 36.4%; with M14, -7.6%; with NCI/ADR-RES it was 10.2%.

For the compound `Clc1ccc(-c2csc(Nc3cccc(Nc4nc(-c5ccc(Cl)cc5)cs4)c3)n2)cc1` [6c, N^1,N^3-bis(4–(4-chlorophenyl)thiazol-2-yl)benzene-1,3-diamine], the inhibition at 10 µM in the experiment on MOLT-4 was 25.4%; with HOP-92 it was 59.5%; in the experiment with HS 578T it was 29.5%; in the experiment with K-562, 5.8%; in the experiment on HCT-15, 7.1%; in the experiment on SF-295, 4%. Moreover, the inhibition at 10 µM in the experiment on SF-539 was 13.9%; with COLO 205, -7.3%; in the experiment with ACHN, 14.3%; in the experiment with RXF 393, 16.7%; in the experiment on SK-MEL-5, 2.9%; in the experiment on MDA-MB-468 it was 13.4%. The inhibition at 10 µM in the experiment with SK-MEL-28 is -4.2%; in the experiment on U251, 2.2%; in the experiment with SK-OV-3, 8.3%; in the experiment on SN12C it was 1%; in the experiment with SNB-19, 11.5%; with NCI-H522 it was 13.2%. Further, the inhibition at 10 µM in the experiment on A549/ATCC is 6.7%; in the experiment with M14, 29.3%; in the experiment on NCI/ADR-RES it was 4.6%.

`CC(=O)c1sc(Nc2cccc(Nc3nc(C)c(C(C)=O)s3)c2)nc1C` [3b, 1,1’-(2,2’-(1,3-Phenylenebis(azanediyl))bis(4-methylthiazole-5,2-diyl))diethanone]: the inhibition at 10 µM in the experiment with MOLT-4 came out at 61.7%; in the experiment with HOP-92, 36.4%; in the experiment with HS 578T, 47.3%; in the experiment on K-562, 59.1%; with HCT-15, 55.1%; with SF-295 it was 13.5%. The inhibition at 10 µM was found to be 27.8% with SF-539; 22.3% in the experiment on COLO 205; 63.5% in the experiment with ACHN; 53% in the experiment on RXF 393; 44.2% in the experiment on SK-MEL-5; 45% with MDA-MB-468. Besides, the inhibition at 10 µM was determined as 28.5% in the experiment with SK-MEL-28; 34.3% in the experiment on U251; 74.2% with SK-OV-3; 45% in the experiment on SN12C; 9.1% in the experiment with SNB-19; 53.8% with NCI-H522. Also, the inhibition at 10 µM in the experiment on A549/ATCC came out at 34.2%; in the experiment with M14, 48.7%; in the experiment with NCI/ADR-RES, 44.4%.

The record behind these values is PMC9897788, “Design, synthesis and cytotoxic evaluation of novel bis-thiazole derivatives as preferential Pim1 kinase inhibitors with in vivo and in silico study” (Journal of Enzyme Inhibition and Medicinal Chemistry, 2023).
